Test results published in patent US10414811B2, “Protease-resistant lipidated GLP-1 analogs” (MEDIMMUNE LIMITED, priority 2015, dated 2019).
Like-named read-outs stand apart in the source and are kept apart here. Numbered stars: 1 amine (or outer) side, 2 acyl side, 3 side chain; on linkers, the order of the positions; unused ones are H or OH. Square brackets hold non-standard residues; d marks the D form. Side chains are listed from the residue outwards. Peptide text beside a SMILES is read from it. * marks the point of attachment. C18 diacid = O=C(O)CCCCCCCCCCCCCCCCC(=O)*; γGlu = O=C(O)[C@H](CCC(=O)[*:2])N[*:1]; αMeF = C[C@](N)(Cc1ccccc1)C(=O)O; αMeK = C[C@](N)(CCCCN)C(=O)O; αMeS = C[C@](N)(CO)C(=O)O; AEEA = NCCOCCOCC(=O)O; Aib = CC(C)(N)C(=O)O

Columns and labels:
Assay type in all cases: cell-based
[1] = molecular target: T1, human GLP-1 receptor (GLP-1R) (Homo sapiens, UniProt P43220); test: cAMP assay, human GLP-1R cells
T1 construct: expressed in transfected cells
T1 sequence (P43220 24-463): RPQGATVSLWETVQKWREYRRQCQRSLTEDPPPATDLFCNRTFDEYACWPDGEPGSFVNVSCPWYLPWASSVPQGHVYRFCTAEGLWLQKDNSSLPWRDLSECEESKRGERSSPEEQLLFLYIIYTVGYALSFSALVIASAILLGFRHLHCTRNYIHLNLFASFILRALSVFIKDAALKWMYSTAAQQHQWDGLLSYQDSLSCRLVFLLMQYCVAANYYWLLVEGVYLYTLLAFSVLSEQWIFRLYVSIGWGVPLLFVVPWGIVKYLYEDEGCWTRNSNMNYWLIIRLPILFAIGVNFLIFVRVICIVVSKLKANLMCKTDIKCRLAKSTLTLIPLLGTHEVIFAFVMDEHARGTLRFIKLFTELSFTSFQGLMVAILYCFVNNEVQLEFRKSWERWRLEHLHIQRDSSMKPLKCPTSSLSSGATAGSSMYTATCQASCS
In short: (§1)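 Peptide-stimulated cAMP measured by two-step HTRF after a 30 min room-temperature incubation with receptor-expressing cells (hGLP-1R, hGIPR at 1×10^5 cells/ml; hGCGR at 2×10^5 cells/ml). Duplicate dilutions; EC50 from 4-parameter logistic fit of % Delta F.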

[2] = molecular target: T2, human glucagon receptor (GCGR) (Homo sapiens, UniProt P47871); test: cAMP assay, human GCGR cells; details: cAMP assay
T2 construct: expressed in transfected cells
T2 sequence (P47871 26-477): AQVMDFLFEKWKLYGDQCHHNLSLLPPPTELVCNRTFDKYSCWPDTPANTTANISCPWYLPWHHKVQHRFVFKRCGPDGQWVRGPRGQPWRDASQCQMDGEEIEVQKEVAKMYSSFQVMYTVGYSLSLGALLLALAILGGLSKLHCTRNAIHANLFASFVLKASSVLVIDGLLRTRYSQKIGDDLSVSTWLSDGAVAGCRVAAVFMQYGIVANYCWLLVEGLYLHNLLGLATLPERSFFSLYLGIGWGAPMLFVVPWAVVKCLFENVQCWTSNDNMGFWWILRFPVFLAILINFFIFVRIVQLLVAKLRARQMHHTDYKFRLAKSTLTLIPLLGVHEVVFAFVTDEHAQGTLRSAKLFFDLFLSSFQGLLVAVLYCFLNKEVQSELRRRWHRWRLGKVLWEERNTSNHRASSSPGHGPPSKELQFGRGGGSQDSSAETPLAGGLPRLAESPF
In short: as §1

[3] = molecular target: T3, human glucose-dependent insulinotropic peptide receptor (GIPR) (Homo sapiens, UniProt P48546); test: cAMP assay, human GIPR cells; details: cAMP assay
T3 construct: expressed in transfected cells
T3 sequence (P48546 22-466): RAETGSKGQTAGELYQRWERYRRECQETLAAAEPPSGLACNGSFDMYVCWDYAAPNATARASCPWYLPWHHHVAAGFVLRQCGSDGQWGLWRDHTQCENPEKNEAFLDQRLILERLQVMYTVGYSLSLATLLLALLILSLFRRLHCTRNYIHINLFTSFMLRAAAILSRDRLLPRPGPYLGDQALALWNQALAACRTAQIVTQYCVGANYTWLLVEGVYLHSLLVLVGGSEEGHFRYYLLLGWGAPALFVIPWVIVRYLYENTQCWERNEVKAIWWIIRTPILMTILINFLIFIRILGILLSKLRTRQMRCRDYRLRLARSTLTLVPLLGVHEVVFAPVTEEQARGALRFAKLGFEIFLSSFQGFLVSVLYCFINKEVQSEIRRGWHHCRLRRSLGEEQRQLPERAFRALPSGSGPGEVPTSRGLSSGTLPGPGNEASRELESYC
In short: as §1

[4] = cAMP assay, first determination (n1), read-out: Primary assay EC50 GLP-1R n1
[5] = cAMP assay, second determination (n2), read-out: Primary assay EC50 GLP-1R n2
[6] = mean of n1 and n2, read-out: Mean pM GLP-1R
[7] = first determination (n1), read-out: Primary assay EC50 Gluc-R (n1)
[8] = second determination (n2), read-out: Primary assay EC50 Gluc-R (n2)
[9] = first determination (n1), read-out: Primary assay EC50 GIP-R (n1)
[10] = second determination (n2), read-out: Primary assay EC50 GIP-R (n2)

Structure (SMILES)	EC50 [1, 4] [pM]	EC50 [1, 5] [pM]	EC50 [1, 6] [pM]	EC50 [2, 7] [nM]	EC50 [2, 8] [nM]	EC50 [3, 9] [nM]	EC50 [3, 10] [nM]	EC50 ([2]; Primary assay EC50 Gluc-R (n1), first determination (n1)) [nM]	EC50 ([2]; read-out: Primary assay EC50 Gluc-R (n2), second determination (n2)) [nM]	EC50 ([3]; Primary assay EC50 GIP-R (n1), first determination (n1)) [nM]	EC50 ([3]; read-out: Primary assay EC50 GIP-R (n2), second determination (n2)) [nM]
CC[C@H](C)[C@H](NC(=O)[C@](C)(Cc1ccccc1)NC(=O)[C@H](CCC(=O)O)NC(=O)[C@](C)(CCCCN)NC(=O)[C@H](C)NC(=O)[C@H](C)NC(=O)[C@H](CCC(=O)O)NC(=O)CNC(=O)[C@H](CCC(=O)O)NC(=O)[C@H](CC(C)C)NC(=O)[C@](C)(Cc1ccccc1)NC(=O)[C@H](CO)NC(=O)[C@](C)(CO)NC(=O)[C@@H](NC(=O)[C@H](CC(=O)O)NC(=O)[C@H](CO)NC(=O)[C@@H](NC(=O)[C@](C)(Cc1ccccc1)NC(=O)[C@H](CO)NC(=O)CNC(=O)[C@H](CCCCNC(=O)COCCOCCNC(=O)COCCOCCNC(=O)CC[C@H](NC(=O)CCCCCCCCCCCCCCCCC(=O)O)C(=O)O)NC(=O)C(C)(C)NC(=O)[C@@H](N)Cc1c[nH]cn1)[C@@H](C)O)C(C)C)C(=O)N[C@@H](C)C(=O)N[C@@](C)(Cc1ccccc1)C(=O)N[C@H](C(=O)N[C@H](C(=O)N[C@@](C)(CCCCN)C(=O)NCC(=O)NCC(N)=O)C(C)C)C(C)C [compound 126] (H-H[Aib]K([AEEA-AEEA-γGlu-C18 diacid])GS[αMeF]TSDV[αMeS]S[αMeF]LEGEAA[αMeK]E[αMeF]IA[αMeF]VV[αMeK]GG-NH2; N-terminus assumed)	≥ 25000	≥ 25400	≥ 25400	≥ 25	≥ 25.4	≥ 25	≥ 25.4				
CC[C@H](C)[C@H](NC(=O)[C@](C)(Cc1ccccc1)NC(=O)[C@H](CCC(=O)O)NC(=O)[C@](C)(CCCCN)NC(=O)[C@H](C)NC(=O)[C@H](C)NC(=O)[C@H](CCC(=O)O)NC(=O)CNC(=O)[C@H](CCC(=O)O)NC(=O)[C@H](CC(C)C)NC(=O)[C@](C)(Cc1ccccc1)NC(=O)[C@H](CO)NC(=O)[C@](C)(CO)NC(=O)[C@@H](NC(=O)[C@H](CC(=O)O)NC(=O)[C@H](CO)NC(=O)[C@@H](NC(=O)[C@](C)(Cc1ccccc1)NC(=O)[C@H](CO)NC(=O)CNC(=O)[C@H](CCC(=O)O)NC(=O)[C@H](CCCCNC(=O)COCCOCCNC(=O)COCCOCCNC(=O)CC[C@H](NC(=O)CCCCCCCCCCCCCCCCC(=O)O)C(=O)O)NC(=O)[C@@H](N)Cc1c[nH]cn1)[C@@H](C)O)C(C)C)C(=O)N[C@@H](C)C(=O)N[C@@](C)(Cc1ccccc1)C(=O)N[C@H](C(=O)N[C@H](C(=O)N[C@@](C)(CCCCN)C(=O)NCC(=O)NCC(N)=O)C(C)C)C(C)C [compound 127]	≥ 25000	≥ 25100	≥ 25100	≥ 25	≥ 25.1	≥ 25	≥ 25.1				
CCCCCCCCCCCC(=O)N[C@@H](CCC(=O)NCCCC[C@H](NC(=O)[C@H](C)NC(=O)[C@H](C)NC(=O)[C@H](CCC(=O)O)NC(=O)CNC(=O)[C@H](CCC(=O)O)NC(=O)[C@H](CC(C)C)NC(=O)[C@](C)(Cc1ccccc1)NC(=O)[C@H](CO)NC(=O)[C@](C)(CO)NC(=O)[C@@H](NC(=O)[C@H](CC(=O)O)NC(=O)[C@H](CO)NC(=O)[C@@H](NC(=O)[C@](C)(Cc1ccccc1)NC(=O)[C@H](CO)NC(=O)CNC(=O)[C@H](CCC(=O)O)NC(=O)C(C)(C)NC(=O)[C@@H](N)Cc1c[nH]cn1)[C@@H](C)O)C(C)C)C(=O)N[C@@H](CCC(=O)O)C(=O)N[C@@](C)(Cc1ccccc1)C(=O)N[C@H](C(=O)N[C@@H](C)C(=O)N[C@@](C)(Cc1ccccc1)C(=O)N[C@H](C(=O)N[C@H](C(=O)N[C@@](C)(CCCCN)C(=O)NCC(=O)NCC(N)=O)C(C)C)C(C)C)[C@@H](C)CC)C(=O)O [compound 128]	15	21	18.2	≥ 28	≥ 28	≥ 28	≥ 28				
CCCCCCCCCCCC(=O)N[C@@H](CCC(=O)N[C@@H](CCC(=O)N[C@@H](CCC(=O)NCCCC[C@H](NC(=O)[C@H](C)NC(=O)[C@H](C)NC(=O)[C@H](CCC(=O)O)NC(=O)CNC(=O)[C@H](CCC(=O)O)NC(=O)[C@H](CC(C)C)NC(=O)[C@](C)(Cc1ccccc1)NC(=O)[C@H](CO)NC(=O)[C@](C)(CO)NC(=O)[C@@H](NC(=O)[C@H](CC(=O)O)NC(=O)[C@H](CO)NC(=O)[C@@H](NC(=O)[C@](C)(Cc1ccccc1)NC(=O)[C@H](CO)NC(=O)CNC(=O)[C@H](CCC(=O)O)NC(=O)C(C)(C)NC(=O)[C@@H](N)Cc1c[nH]cn1)[C@@H](C)O)C(C)C)C(=O)N[C@@H](CCC(=O)O)C(=O)N[C@@](C)(Cc1ccccc1)C(=O)N[C@H](C(=O)N[C@@H](C)C(=O)N[C@@](C)(Cc1ccccc1)C(=O)N[C@H](C(=O)N[C@H](C(=O)N[C@@](C)(CCCCN)C(=O)NCC(=O)NCC(N)=O)C(C)C)C(C)C)[C@@H](C)CC)C(=O)O)C(=O)O)C(=O)O [compound 130]	16	13	14.4	≥ 26	≥ 26	≥ 26	≥ 26				
CCCCCCCCCCCC(=O)NCCCCCC(=O)NCCCC[C@H](NC(=O)[C@H](C)NC(=O)[C@H](C)NC(=O)[C@H](CCC(=O)O)NC(=O)CNC(=O)[C@H](CCC(=O)O)NC(=O)[C@H](CC(C)C)NC(=O)[C@](C)(Cc1ccccc1)NC(=O)[C@H](CO)NC(=O)[C@](C)(CO)NC(=O)[C@@H](NC(=O)[C@H](CC(=O)O)NC(=O)[C@H](CO)NC(=O)[C@@H](NC(=O)[C@](C)(Cc1ccccc1)NC(=O)[C@H](CO)NC(=O)CNC(=O)[C@H](CCC(=O)O)NC(=O)C(C)(C)NC(=O)[C@@H](N)Cc1c[nH]cn1)[C@@H](C)O)C(C)C)C(=O)N[C@@H](CCC(=O)O)C(=O)N[C@@](C)(Cc1ccccc1)C(=O)N[C@H](C(=O)N[C@@H](C)C(=O)N[C@@](C)(Cc1ccccc1)C(=O)N[C@H](C(=O)N[C@H](C(=O)N[C@@](C)(CCCCN)C(=O)NCC(=O)NCC(N)=O)C(C)C)C(C)C)[C@@H](C)CC [compound 131]	14	9.9	11.7	≥ 29	≥ 29	≥ 29	≥ 29				
CCCCCCCCCCCC(=O)NCCCCCC(=O)NCCCCCC(=O)NCCCCCC(=O)NCCCC[C@H](NC(=O)[C@H](C)NC(=O)[C@H](C)NC(=O)[C@H](CCC(=O)O)NC(=O)CNC(=O)[C@H](CCC(=O)O)NC(=O)[C@H](CC(C)C)NC(=O)[C@](C)(Cc1ccccc1)NC(=O)[C@H](CO)NC(=O)[C@](C)(CO)NC(=O)[C@@H](NC(=O)[C@H](CC(=O)O)NC(=O)[C@H](CO)NC(=O)[C@@H](NC(=O)[C@](C)(Cc1ccccc1)NC(=O)[C@H](CO)NC(=O)CNC(=O)[C@H](CCC(=O)O)NC(=O)C(C)(C)NC(=O)[C@@H](N)Cc1c[nH]cn1)[C@@H](C)O)C(C)C)C(=O)N[C@@H](CCC(=O)O)C(=O)N[C@@](C)(Cc1ccccc1)C(=O)N[C@H](C(=O)N[C@@H](C)C(=O)N[C@@](C)(Cc1ccccc1)C(=O)N[C@H](C(=O)N[C@H](C(=O)N[C@@](C)(CCCCN)C(=O)NCC(=O)NCC(N)=O)C(C)C)C(C)C)[C@@H](C)CC [compound 133]	34	25	29.4	≥ 27	≥ 27	≥ 27	≥ 27				
CC[C@H](C)[C@H](NC(=O)[C@](C)(Cc1ccccc1)NC(=O)[C@H](CCC(=O)O)NC(=O)[C@H](CCCCNC(=O)CC[C@H](NC(=O)CC[C@H](NC(=O)CCCCCCCCCCCOc1ccc(C(=O)O)cc1)C(=O)O)C(=O)O)NC(=O)[C@H](C)NC(=O)[C@H](C)NC(=O)[C@H](CCC(=O)O)NC(=O)CNC(=O)[C@H](CCC(=O)O)NC(=O)[C@H](CC(C)C)NC(=O)[C@](C)(Cc1ccccc1)NC(=O)[C@H](CO)NC(=O)[C@](C)(CO)NC(=O)[C@@H](NC(=O)[C@H](CC(=O)O)NC(=O)[C@H](CO)NC(=O)[C@@H](NC(=O)[C@](C)(Cc1ccccc1)NC(=O)[C@H](CO)NC(=O)CNC(=O)[C@H](CCC(=O)O)NC(=O)C(C)(C)NC(=O)[C@@H](N)Cc1c[nH]cn1)[C@@H](C)O)C(C)C)C(=O)N[C@@H](C)C(=O)N[C@@](C)(Cc1ccccc1)C(=O)N[C@H](C(=O)N[C@H](C(=O)N[C@@](C)(CCCCN)C(=O)NCC(=O)NCC(N)=O)C(C)C)C(C)C [compound 138]	19	15	17.2					≥ 26	≥ 26	≥ 26	≥ 26
